Here are results for one compound from US9855250B1, “Method to treat lung cancer” (Macau University of Science and Technology, priority 2016, dated 2018).

Series [1] is described as follows: MTT cytotoxicity assay on normal lung fibroblast CCD-19 Lu cells. The class given is cell-based. As to conditions: human, CCD-19 Lu normal lung fibroblast cells, CCD-19 Lu normal lung cells, MTT. As to the method:
(§1) H1975 and CCD-19 Lu was purchased from ATCC (American type culture collection). H1975 was cultivated with RPMI 1640 medium supplement with 10% fetal bovine serum (Gibco, Big Cabin, Okla., ME, USA), 100 U/mL, penicillin and 100 μg/mL and streptomycin (Gibco, Big Cabin, Okla., ME, USA). CCD-19 Lu was cultivated with MEM medium supplemented with 10% FBS, 100 U/ml penicillin and 100 μg/ml streptomycin. All cells were cultivated at 37° C. in a humidified atmosphere of 5% CO2.
(§2) H1975 cells were seeded in a 96-well microplate with 3000 cells/well confluence, and put into the incubator overnight for cells adhesion. Different concentrations of the compound F321-0719 were added with Dimethyl sulfoxide (DMSO) as vehicle control. The microplates were incubated for further 72 h. Each dosage was repeated in triplicate. 10 μL of MTT (5 mg/mL) solution was added to each well. The plate was placed back into the incubator for 4 hours. After that, 100 μL of resolved solution (10% SDS and 0.1 mM HCL) was added to each well. Before dissolving the formazan crystals, the microplate was put back into the incubator for another 4 hours. The absorbance of the plate was measured at 570 nm with reference 650 nm by a microplate reader (Tecan, Morrisville, N.C., USA). Cell viability was calculated by percentages of the absorbance of the treatment group divided by the absorbance of untreated group. […]
On the technique in general: Formazan colour is commonly taken as a measure of viable cells.

Series [2] has as its system CCD-19 Lu cells. The series is described as above. The class given is cell-based. As to conditions: 72 h; even at concentration 20 times the IC50 on H1975 cells. As to the method: as §1, §2
Series [3] relates to H1975 cells. Briefly: Cell cycle analysis (PI staining, flow cytometry) in H1975 cells. It is filed as cell-based. As to conditions: 5 μM and 10 μM, 48 h. As to the method: H1975 cells were plated with 1.5×10^5 cells/well at a 6-well plate and cultured overnight for attachment. Cells were treated with the compound F321-0775 at 0, 2.5, 5, 10 μM for 48 h. After treatment, all cells were harvested by trypsinization, and collected by centrifugation. After removing all suspension, cells were washed by PBS. Cells pellets were re-suspended in 70% ethanol at 4° C. overnight. Cells were centrifuged at 1000 rpm for 5 min to remove all the ethanol. Each cell pellet was re-suspended in 500 μl PI staining solution at 37° C. for 30 min in dark. Then, they were washed in PBS twice. Cells were re-suspended in 300 μl 1× binding buffer and transferred to the flow cytometer (BD FACS Aria III).
Background: Flow cytometry measures light scatter and fluorescence of single cells or particles in a stream.

The subject of series [4] is AMPK. Briefly: AMPK enzyme activity assay (CycLex AMPK Kinase Assay Kit). It is filed as biochemical. Conditions: at 2.5 μM of the compound. The source says:
The CycLex AMPK Kinase Assay Kit (CycLex Co., Ltd., Nagano, Japan) was used to detect the activation of AMPK by the compound F321-0719. Compound C was used as AMPK inhibitor, and AMPK active enzyme was used as a positive control for phosphorylation.

Series [5] deals with H1975 cells. Briefly: Apoptosis assay (Annexin-V FITC/PI flow cytometry) in H1975 cells. The class given is cell-based. Conditions: 48 h treatment, vs control group. As to the method:
H1975 cells (1×10^5 cells/well) were seeded in a 6-well plate for 24 h, and treated with the indicated concentrations of the compound F321-0719 for an additional 48 h at 37° C. After 48 h, the cells were washed by ice-cold 1×PBS (Phosphate-buffered saline) once and harvested by trypsination. Then cells were centrifuged, collected and re-suspended in ice-cold 1×PBS. After removing the supernatants, cell pellets were re-suspended in 100 μL 1× Annexin-binding buffer. The cells were then double-stained with Annexin-V FITC and PI (100 μg/mL) of 2 μL respectively for 15 min at room temperature in dark. After that, 300 μL 1× Annexin-binding buffer was added. Apoptotic cells were quantitatively counted by a BD Aria III Flow Cytometer (BD Biosciences, San Jose, Calif., USA).

The test system of series [6] is phosphorylation of AMPK and ACC. The series can be described thus: Western blot analysis of AMPK and ACC phosphorylation in H1975 cells. The class given is cell-based. Conditions: β-actin loading control. How it is done:
After incubating H1975 cells with the compound F321-0719 for 24 h, H1975 cells were harvested and washed with cold 1×PBS. Then, cells were lysed with ice-cold RIPA lysis buffer with protease and phosphatase inhibitors added to extract the cell protein extraction. The supernatants were collected by centrifugation at 12,000 g, for 5 minutes. The quantitation of total protein extraction was measured by Bio-Rad DCTM protein assay kit (Bio-Rad, Philadelphia, Pa., USA). Then 30 μg of protein were loaded and electrophoretically separated on 10% SDS-PAGE gel and then transferred to Nitrocellulose (NC) membrane. Membranes were blocked with 5% non-fat milk and […] containing 0.1% Tween-20 (TBST) for 1 hour at room temperature. After 1 hour, membranes were incubated with primary antibodies (1:1000 dilution) against β-actin, total/phosphor-ACC, total-AMPK, and against phosphor-AMPK, at 4° C. with gently shaking overnight. Membranes were washed with TBST for 3 times (5 minutes/time), and incubated with secondary fluorescent antibody (1:10000 dilutions) for 1 hour at room temperature. Rewashing with TBST for 3 times (15 minutes/time), the stripes were visualized by LI-COR Odessy scanner (Belfast, Me., USA).
In general terms: In western blotting, separated proteins are transferred to a membrane and probed.

Series [7] deals with H1975 cells. The series can be described thus: MTT cytotoxicity assay on H1975 NSCLC cells. The class given is cell-based. As to conditions: Homo sapiens, NCI-H1975, H1975, EGFR L858R/T790M, 72 h treatment. How it is done: as §1, §2

In series [1], `O=C(Nc1cccc(-c2noc(C3CCCC3)n2)c1)c1cc2ccccc2[nH]1` [F321-0719] had an IC50 at 72 h of more than 100 µM. For the same compound, the “cytotoxicity on CCD-19 Lu cells” value in series [2] is on record as “no cytotoxicity”. The “G2 phase of cell cycle distribution” value in series [3] is reported as “increased”. The “AMPK enzyme activity (fold of AMPK kinase group)” value in series [4] is reported as “enhanced”. The apoptosis level result in series [5] is “induced significant level of apoptosis in a concentration-dependent manner”. Besides, the “phosphorylation of AMPK and ACC (western blot)” value in series [6] is “activated phosphorylation of both AMPK and ACC in a dose-dependent manner”. In series [7], this compound returned an IC50 of 3.46 ± 1.71 µM.

Usually IC50 stands for the point on the concentration scale where inhibition reaches its midpoint.
